Experimental data from patent US20240238424A1, “HETEROBIFUNCTIONAL COMPOUNDS AND METHODS OF TREATING DISEASE” (Halda Therapeutics OpCo, Inc., priority 2021, published 2024).

What follows are compounds tested against T1, GSPT1 (Homo sapiens, UniProt P15170+Q96SW2) (assay: GSPT1 HiBit degradation assay). Conditions: Table 3; HEK293 LgBiT cells expressing GSPT1_HiBiT, luminescence after 6 hours.
T1 construct: host or cells: HEK293 LgBiT cell line
Assay type: cell-based
From the text: Promega developed a HEK293 cell line that constitutively expresses LgBiT protein and GSPT1_HiBiT fusion protein. When both proteins are present, the HiBiT portion of the fusion protein combines with LgBiT protein to form a functional luciferase enzyme. Endurazine, a cell permeable small molecule, is converted by cellular esterases into furimazine, which the luciferase enzyme uses as a substrate to generate luminescence. When GSPT1 is degraded, the HiBit is also degraded. This prevents formation of fully functional luciferase, leading to a loss in luminescence. GSPT1 degradation therefore correlates with a decrease in luminescence and can be measured continuously over time. The concentration of compound at which 50% GSPT1 degradation occurs (DC50) was calculated using this system.
• HEK293 LgBiT Cell line (Promega Custom) • Endurazine Substrate (Promega Cat. #N2570) • DMEM (Gibco Cat. #11995) • Penicillin/Streptomycin (Gibco Cat. #15140-122) • Heat Inactivated Fetal Bovine Serum (Gibco Cat. #A38400-01) • Hygromycin B (Gibco Cat. #10-687-010) • 384 Well TC Treated White Microplate (Perkin Elmer Cat. #6007680)
HEK293 LgBiT cells were cultured in DMEM Media supplemented with 10% FBS, 5% Pen/Strep, 200 μg/ml hygromycin and stored in an incubator set at 37° C. and 5% CO2. 18-24 hours prior to compound treatment, HEK293 LgBiT cells were seeded at 1000 cells/well in a 384-well microplate in 25 μl complete media. The plate was spun at 300 g for 30 seconds and stored in the incubator overnight. The next day, compounds were titrated in DMSO and added to media supplemented with endurazine substrate. A 25 ul aliquot of 2× compound/endurazine in media were then added to the 384-well microplate with seeded cells. (Endurazine was used at a final concentration of 0.5×). The plate was spun at 300 g for 30 seconds and stored in the incubator. After 6 hours the plate was read on a Perkin Elmer MultiMode Plate Reader Envision 2105 to measure luminescence signal.

T1 sequence (P15170 whole entry): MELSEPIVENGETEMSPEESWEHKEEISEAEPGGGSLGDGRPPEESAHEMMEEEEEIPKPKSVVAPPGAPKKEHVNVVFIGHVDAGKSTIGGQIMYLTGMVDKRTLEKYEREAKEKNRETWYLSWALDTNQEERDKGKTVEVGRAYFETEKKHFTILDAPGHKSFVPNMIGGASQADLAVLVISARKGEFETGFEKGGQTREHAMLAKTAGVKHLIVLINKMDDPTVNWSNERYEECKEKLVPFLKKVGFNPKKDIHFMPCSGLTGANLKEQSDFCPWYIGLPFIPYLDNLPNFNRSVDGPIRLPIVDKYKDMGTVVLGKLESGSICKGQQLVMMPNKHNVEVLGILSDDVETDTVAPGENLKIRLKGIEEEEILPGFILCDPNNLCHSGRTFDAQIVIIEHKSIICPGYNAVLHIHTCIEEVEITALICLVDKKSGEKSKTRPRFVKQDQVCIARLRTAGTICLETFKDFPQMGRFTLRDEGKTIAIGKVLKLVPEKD
T1 sequence (Q96SW2 whole entry): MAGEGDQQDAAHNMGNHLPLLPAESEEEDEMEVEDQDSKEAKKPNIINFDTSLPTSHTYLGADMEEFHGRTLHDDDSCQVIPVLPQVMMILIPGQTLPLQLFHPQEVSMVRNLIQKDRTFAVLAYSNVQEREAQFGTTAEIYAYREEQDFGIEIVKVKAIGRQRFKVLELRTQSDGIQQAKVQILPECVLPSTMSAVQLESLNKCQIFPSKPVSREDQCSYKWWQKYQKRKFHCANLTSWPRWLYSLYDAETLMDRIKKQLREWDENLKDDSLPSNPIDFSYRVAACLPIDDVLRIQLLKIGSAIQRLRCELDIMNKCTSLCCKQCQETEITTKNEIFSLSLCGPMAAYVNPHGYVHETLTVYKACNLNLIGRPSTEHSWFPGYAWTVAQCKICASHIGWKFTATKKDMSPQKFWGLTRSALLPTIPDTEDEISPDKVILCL
T1 sequence (Q16531 whole entry partner): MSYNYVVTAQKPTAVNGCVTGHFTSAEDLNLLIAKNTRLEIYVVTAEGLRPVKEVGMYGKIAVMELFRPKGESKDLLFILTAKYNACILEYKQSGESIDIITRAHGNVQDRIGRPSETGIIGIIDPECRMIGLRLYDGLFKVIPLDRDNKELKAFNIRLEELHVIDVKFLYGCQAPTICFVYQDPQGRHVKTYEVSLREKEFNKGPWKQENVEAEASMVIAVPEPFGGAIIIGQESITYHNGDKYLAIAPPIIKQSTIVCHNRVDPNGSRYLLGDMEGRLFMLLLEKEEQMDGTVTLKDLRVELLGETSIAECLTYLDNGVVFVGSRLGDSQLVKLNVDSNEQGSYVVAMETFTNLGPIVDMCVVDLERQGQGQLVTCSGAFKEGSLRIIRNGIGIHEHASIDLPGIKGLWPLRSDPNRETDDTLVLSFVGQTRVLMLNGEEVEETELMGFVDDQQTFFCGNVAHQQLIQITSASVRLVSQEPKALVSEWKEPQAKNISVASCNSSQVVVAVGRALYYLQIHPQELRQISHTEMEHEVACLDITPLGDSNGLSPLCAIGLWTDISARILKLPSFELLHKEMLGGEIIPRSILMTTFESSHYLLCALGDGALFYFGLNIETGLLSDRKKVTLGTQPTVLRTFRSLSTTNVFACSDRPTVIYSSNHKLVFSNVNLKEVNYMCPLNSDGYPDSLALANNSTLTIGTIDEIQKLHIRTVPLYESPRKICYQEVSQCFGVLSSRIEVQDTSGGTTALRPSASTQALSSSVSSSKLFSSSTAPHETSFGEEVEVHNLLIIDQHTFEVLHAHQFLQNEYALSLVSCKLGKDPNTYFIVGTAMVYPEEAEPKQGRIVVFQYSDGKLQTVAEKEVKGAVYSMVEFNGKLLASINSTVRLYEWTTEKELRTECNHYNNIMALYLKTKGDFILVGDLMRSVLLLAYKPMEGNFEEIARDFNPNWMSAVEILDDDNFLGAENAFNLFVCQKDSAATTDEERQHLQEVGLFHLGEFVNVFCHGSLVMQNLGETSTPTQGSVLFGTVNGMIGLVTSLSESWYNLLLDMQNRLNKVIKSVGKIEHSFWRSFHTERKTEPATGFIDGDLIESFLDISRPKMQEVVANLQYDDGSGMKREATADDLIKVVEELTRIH

Compared with `COc1cc(N2CCN(C(=O)COCCOCCOCCOCCOCCOCCOCCOCCOc3cc(Cl)cc(NC(=O)NCc4ccc5c(c4)CN(C4CCC(=O)NC4=O)C5=O)c3)CC2)ccc1Nc1ncc(Cl)c(Nc2ccccc2P(C)(C)=O)n1` (centres unmarked) [Compound I-26], `COc1cc(N2CCN(C(=O)COCCOCCOCCOCCOCCOCCOCCOCCc3cc(Cl)cc(NC(=O)NCc4ccc5c(c4)CN(C4CCC(=O)NC4=O)C5=O)c3)CC2)ccc1Nc1ncc(Cl)c(Nc2ccccc2P(C)(C)=O)n1` (centres unmarked) [Compound I-27] is lower in DC50: over 10 µM for the first, 5 to 10 µM for the second.

`CC1(C)[C@H](NC(=O)c2ccc(OCCOCCOCCOCCOCCOCCOCCOCCOCCc3cc(Cl)cc(NC(=O)NCc4ccc5c(c4)CN(C4CCC(=O)NC4=O)C5=O)c3)cc2)C(C)(C)[C@H]1Oc1ccc(C#N)c(Cl)c1` (some centres unmarked) [Compound I-28] and `CC1(C)[C@H](NC(=O)c2ccc(OCCOCCOCCOCCOCCOCCOCCOCCOCCOCCOCCc3cc(Cl)cc(NC(=O)NCc4ccc5c(c4)CN(C4CCC(=O)NC4=O)C5=O)c3)cc2)C(C)(C)[C@H]1Oc1ccc(C#N)c(Cl)c1` (some centres unmarked) [Compound I-29] fall in the same range of DC50: 0.25 to 5 µM for the first, 0.25 to 5 µM for the second.

`C=CC(=O)Nc1cc(Nc2nccc(-c3cn(C)c4ccccc34)n2)c(OC)cc1N(C)CCN(C)CCOCCOCCOCCOCCOCCOCCOc1cc(Cl)cc(NC(=O)NCc2ccc3c(c2)CN(C2CCC(=O)NC2=O)C3=O)c1` (centres unmarked) [Compound I-33] and `C=CC(=O)Nc1cc(Nc2nccc(-c3cn(C)c4ccccc34)n2)c(OC)cc1N(C)CCN(C)CCOCCOCCOCCOCCOCCOCCc1cc(Cl)cc(NC(=O)NCc2ccc3c(c2)CN(C2CCC(=O)NC2=O)C3=O)c1` (centres unmarked) [Compound I-34] fall in the same range of DC50: 5 to 10 µM for the first, 5 to 10 µM for the second.

`C=CC(=O)Nc1cc(Nc2nccc(-c3cn(C)c4ccccc34)n2)c(OC)cc1N(C)CCN(C)CCOCCOCCOCCOCCOCCOCCOCCOCCc1cc(Cl)cc(NC(=O)NCc2ccc3c(c2)CN(C2CCC(=O)NC2=O)C3=O)c1` (centres unmarked) [Compound I-35] and `C=CC(=O)Nc1cc(Nc2nccc(-c3cn(C)c4ccccc34)n2)c(OC)cc1N(C)CCN(C)CCOCCOCCOCCOCCOCCOCCOCCOCCOc1cc(Cl)cc(NC(=O)NCc2ccc3c(c2)CN(C2CCC(=O)NC2=O)C3=O)c1` (centres unmarked) [Compound I-57] cannot be ordered by DC50: over 10 µM for the first, over 10 µM for the second.

`C=CC(=O)Nc1cc(Nc2nccc(-c3cn(C)c4ccccc34)n2)c(OC)cc1N(C)CCN(C)CCOCCOCCOCCOCCOCCOCCOCCOCCOCCOCCc1cc(Cl)cc(NC(=O)NCc2ccc3c(c2)CN(C2CCC(=O)NC2=O)C3=O)c1` (centres unmarked) [Compound I-36] and `C=CC(=O)Nc1cc(Nc2nccc(-c3cn(C)c4ccccc34)n2)c(OC)cc1N(C)CCN(C)CCOCCOCCOCCOCCOCCOCCOCCOCCOCCOCCOc1cc(Cl)cc(NC(=O)NCc2ccc3c(c2)CN(C2CCC(=O)NC2=O)C3=O)c1` (centres unmarked) [Compound I-60] fall in the same range of DC50: 5 to 10 µM for the first, 5 to 10 µM for the second.

Compared with `COc1cc(N2CCN(C(=O)COCCOCCOCCOCCOCCOCCOCCOCCOCCOCCc3cc(Cl)cc(NC(=O)NCc4ccc5c(c4)CN(C4CCC(=O)NC4=O)C5=O)c3)CC2)ccc1Nc1ncc(Cl)c(Nc2ccccc2P(C)(C)=O)n1` (centres unmarked) [Compound I-45], `C=CC(=O)Nc1cc(Nc2nccc(-c3cn(C)c4ccccc34)n2)c(OC)cc1N(C)CCN(C)CCOCCOCCOCCOCCOCCOCCOCCOCCOCCOCCCCCCCCc1cc(Cl)cc(NC(=O)NCc2ccc3c(c2)CN(C2CCC(=O)NC2=O)C3=O)c1` (centres unmarked) [Compound I-63] is lower in DC50: 5 to 10 µM for the first, under 0.25 µM for the second.

Going from `CCN(CCOCCOCCOCCOCCOCCOCCCCCCCCc1cc(Cl)cc(NC(=O)NCc2ccc3c(c2)CN(C2CCC(=O)NC2=O)C3=O)c1)CCOc1ccc(C(=O)c2c(-c3ccc(O)cc3)sc3cc(O)ccc23)cc1` (centres unmarked) [Compound I-55] to `CCN(CCOCCOCCOCCOCCOCCOCCCCCCCCCCCCCCc1cc(Cl)cc(NC(=O)NCc2ccc3c(c2)CN(C2CCC(=O)NC2=O)C3=O)c1)CCOc1ccc(C(=O)c2c(-c3ccc(O)cc3)sc3cc(O)ccc23)cc1` (centres unmarked) [Compound I-56], the DC50 rises from under 0.25 µM to over 10 µM.

First: CCN(CCCCCCCCc1cc(Cl)cc(NC(=O)NCc2ccc3c(c2)CN(C2CCC(=O)NC2=O)C3=O)c1)CCOc1ccc(C(=O)c2c(-c3ccc(O)cc3)sc3cc(O)ccc23)cc1 (centres unmarked) [Compound I-58]
Second: CCN(CCOCCOCCOCCOCCCCCCCCCCCCCCc1cc(Cl)cc(NC(=O)NCc2ccc3c(c2)CN(C2CCC(=O)NC2=O)C3=O)c1)CCOc1ccc(C(=O)c2c(-c3ccc(O)cc3)sc3cc(O)ccc23)cc1 (centres unmarked) [Compound I-59]
The DC50 of the first is lower: under 0.25 µM for the first, 0.25 to 5 µM for the second.

`C=CC(=O)Nc1cc(Nc2nccc(-c3cn(C)c4ccccc34)n2)c(OC)cc1N(C)CCN(C)CCOCCOCCOCCOCCCCCCCCc1cc(Cl)cc(NC(=O)NCc2ccc3c(c2)CN(C2CCC(=O)NC2=O)C3=O)c1` (centres unmarked) [Compound I-61] and `C=CC(=O)Nc1cc(Nc2nccc(-c3cn(C)c4ccccc34)n2)c(OC)cc1N(C)CCN(C)CCOCCOCCOCCOCCOCCOCCCCCCCCc1cc(Cl)cc(NC(=O)NCc2ccc3c(c2)CN(C2CCC(=O)NC2=O)C3=O)c1` (centres unmarked) [Compound I-62] cannot be ordered by DC50: under 0.25 µM for the first, under 0.25 µM for the second.

`Cc1c(CC(=O)N(C)C)ccc(NC(=O)c2nn([C@H]3CCCN(C(=O)/C=C/CN(C)CCOCCOCCOCCOCCCCCCCCc4cc(Cl)cc(NC(=O)NCc5ccc6c(c5)CN(C5CCC(=O)NC5=O)C6=O)c4)C3)c3ncnc(N)c23)c1C` (some centres unmarked) [Compound I-64] and `Cc1c(CC(=O)N(C)C)ccc(NC(=O)c2nn(C3CCCN(C(=O)/C=C/CN(C)CCOCCOCCOCCOCCOCCOCCCCCCCCc4cc(Cl)cc(NC(=O)NCc5ccc6c(c5)CN(C5CCC(=O)NC5=O)C6=O)c4)C3)c3ncnc(N)c23)c1C` (centres unmarked) [Compound I-65] cannot be ordered by DC50: under 0.25 µM for the first, under 0.25 µM for the second.

Compared with `Cc1c(CC(=O)N(C)C)ccc(NC(=O)c2nn([C@H]3CCCN(C(=O)/C=C/CN(C)CCOCCOCCOCCOCCOCCOCCOCCOCCOCCOCCCCCCCCc4cc(Cl)cc(NC(=O)NCc5ccc6c(c5)CN(C5CCC(=O)NC5=O)C6=O)c4)C3)c3ncnc(N)c23)c1C` (some centres unmarked) [Compound I-66], `Cc1c(CC(=O)N(C)C)ccc(NC(=O)c2nn([C@@H]3CCCN(C(=O)/C=C/CN(C)CCOCCOCCOCCOCCOCCOCCOCCOCCCCCCCCc4cc(Cl)cc(NC(=O)NCc5ccc6c(c5)CN(C5CCC(=O)NC5=O)C6=O)c4)C3)c3ncnc(N)c23)c1C` (some centres unmarked) [Compound I-69] is lower in DC50: 0.25 to 5 µM for the first, under 0.25 µM for the second.

`C=CC(=O)Nc1cc(Nc2nccc(-c3cn(C)c4ccccc34)n2)c(OC)cc1N(C)CCN(C)CCOCCOCCOCCOCCOCCOCCOCCOCCCCCCCCc1cc(Cl)cc(NC(=O)NCc2ccc3c(c2)CN(C2CCC(=O)NC2=O)C3=O)c1` (centres unmarked) [Compound I-68] and `C=C(F)C(=O)N1CCN(c2nc(OC[C@H]3CCCN3CCCOCCOCCOCCOCCOCCOCCCCCCCCc3cc(Cl)cc(NC(=O)NCc4ccc5c(c4)CN(C4CCC(=O)NC4=O)C5=O)c3)nc3c2CCN(c2cccc4cccc(Cl)c24)C3)C[C@H]1CC#N` (some centres unmarked) [Compound I-71] cannot be ordered by DC50: under 0.25 µM for the first, under 0.25 µM for the second.

Compound `C=C(F)C(=O)N1CCN(c2nc(OC[C@@H]3CCCN3CCCOCCOCCOCCOCCCCCCCCc3cc(Cl)cc(NC(=O)NCc4ccc5c(c4)CN(C4CCC(=O)NC4=O)C5=O)c3)nc3c2CCN(c2cccc4cccc(Cl)c24)C3)C[C@@H]1CC#N` (some centres unmarked) [Compound I-70] has a DC50 of under 0.25 µM.

Same assay, conditions: Table 3A; HEK293 LgBiT cells expressing GSPT1_HiBiT, luminescence after 6 hours

`Cc1c(CC(=O)N(C)C)ccc(NC(=O)c2nn([C@@H]3CCCN(C(=O)/C=C/CN(C)CCOCCOCCOCCOCCOCCOCCc4cc(Cl)cc(NC(=O)NCc5ccc6c(c5)CN(C5CCC(=O)NC5=O)C6=O)c4)C3)c3ncnc(N)c23)c1C` (stereo partly drawn) [Compound I-23, 4-amino-1-[(3R)-1-[(E)-4-[2-[2-[2-[2-[2-[2-[2-[3-chloro-5-[[2-(2,6-dioxo-3-piperidyl)-1-oxo-isoindolin-5-yl]methylcarbamoylamino]phenyl]ethoxy]ethoxy]ethoxy]ethoxy]ethoxy]ethoxy]ethyl-methyl-amino]but-2-enoyl]-3-piperidyl]-N-[4-[2-(dimethylamino)-2-oxo-ethyl]-2,3-dimethyl-phenyl]pyrazolo [3,4-d]pyrimidine-3-carboxamide] and `COc1cc(N2CCN(C(=O)COCCOCCOCCOCCOCCOCCOc3cc(Cl)cc(NC(=O)NCc4ccc5c(c4)CN(C4CCC(=O)NC4=O)C5=O)c3)CC2)ccc1Nc1ncc(Cl)c(Nc2ccccc2P(C)(C)=O)n1` (centres unmarked) [Compound I-25] cannot be ordered by DC50: over 10 µM for the first, over 10 µM for the second.

First: COc1cc(N2CCN(C(=O)COCCOCCOCCOCCOCCOCCOCCOCCOCCOCCOc3cc(Cl)cc(NC(=O)NCc4ccc5c(c4)CN(C4CCC(=O)NC4=O)C5=O)c3)CC2)ccc1Nc1ncc(Cl)c(Nc2ccccc2P(C)(C)=O)n1 (centres unmarked) [Compound I-24, 1-[3-chloro-5-[2-[2-[2-[2-[2-[2-[2-[2-[2-[2-[2-[4-[4-[[5-chloro-4-(2-dimethylphosphorylanilino)pyrimidin-2-yl]amino]-3-methoxy-phenyl]piperazin-1-yl]-2-oxo-ethoxy]ethoxy]ethoxy]ethoxy]ethoxy]ethoxy]ethoxy]ethoxy]ethoxy]ethoxy]ethoxy]phenyl]-3-[[2-(2,6-dioxo-3-piperidyl)-1-oxo-isoindolin-5-yl]methyl]urea]
Second: CCN(CCOCCOCCOCCOCCCCCCCCc1cc(Cl)cc(NC(=O)NCc2ccc3c(c2)CN(C2CCC(=O)NC2=O)C3=O)c1)CCOc1ccc(C(=O)c2c(-c3ccc(O)cc3)sc3cc(O)ccc23)cc1 (centres unmarked) [Compound I-77]
The DC50 of the first is higher: over 10 µM for the first, under 0.25 µM for the second.
